Tests used:
[1] = system: isolated human eosinophils; assay: Human eosinophil chemotaxis assay (Boyden chamber) with histamine receptor subtype-selective agonists; assay type: cell-based; settings: in vitro, agonist in bottom wells, 45 minutes, FIG. 9
Procedure: (§1) Eosinophils were isolated from peripheral blood as previously described (Hansel, T T., De Vries I J., Iff T., Rihs S., Wandzilak M., Betz S., Blaser K. and Walker C. (1991). An improved immunomagnetic procedure for the isolation of highly purified human blood eosinophils. J. Imm. Meth. 145:105-10). Chemotaxis was measured using a 48-well Boyden chamber (Neuro Probe Inc., Cabin John, Md., USA). Agonists were diluted in RPMI media (BioWhittaker, Walkersville, Md., USA) containing 0.1% bovine serum albumin (BSA) (Gibco BRL, Gaithersburg, Md., USA) and added to the bottom wells of the chemotaxis chamber. A 5 µm PVP-free polycarbonate filter was used to separate the wells of the chamber (Neuro Probe Inc., Cabin John, Md., USA). Eosinophils were resuspended in RPMI/BSA media at a concentration of 2.5×10^6 cells per ml. 50 µl of this cell suspension were then added to the upper chamber. Chambers were incubated for 45 minutes in a 5% CO2-humidified atmosphere at 37° C. After the incubation period, the filters were removed, the top side was scraped to remove non-migrating cells, and the filters were stained with Diff-Quik stain (Dade Behring AG, Dudingen, Switzerland). The number of cells migrating (bottom of filter) were counted by light microscopy. The mean of three high-powered fields was then determined. The number of migrating cells was calculated by subtracting […]. All compounds were purchased from Sigma-RBI.
Experiments were performed to characterise the histamine receptor subtype involved in the eosinophil chemotactic response to histamine. Methodology was as detailed above. […] Eotaxin was included as a positive control for eosinophil chemotaxis.

[2] = system: isolated human eosinophils; settings: described by Raible et al. (1994); cited from earlier work
PFI-013 [3] = molecular target: T1, PFI-013 (Homo sapiens, UniProt Q9H3N8); assay: FLIPR functional cell-based assay (intracellular calcium) in PFI-013-transfected HEK293 cells expressing mouse Gα15; set-up: expressed in transfected cells; host or cells: HEK293 cells expressing mouse Gα15, transient transfection; settings: for activation of PFI-013 by histaminergic compounds: FIG. 8, rank order of potency N-α-methyl histamine > histamine > R-α-methyl histamine = histamine-1-methyl
Procedure: Fluorescence Imaging Plate Reader (FLIPR®) technology was employed as a means to detect activation of PFI-013 by histamine or histamine agonists in a cell-based assay.
5×10^6 Human Embryonic Kidney (HEK) 293 cells expressing the mouse Gα15 gene (from here on called ‘293 cells’), were transiently transfected with 7.5 μg of PFI-013 (contained within the pcDNA4HISmaxB (Invitrogen) plasmid) vector, or vector alone, using Lipofectamine Plus® reagent (Gibco BRL) as per the manufacturer's protocol. The PFI-013 cDNA had been cloned into pcDNA4HISmaxB using restriction sites KpnI and NotI to excise the PFI-013 cDNA from pcDNA3.1/V5-His-TOPO and to insert the cDNA into pcDNA4HISmaxB using standard molecular biology techniques (e.g. according to Sambrook, et al., eds. (1989) Molecular Cloning: A Laboratory Manual, Cold Spring Harbor Laboratory Press, New York, N.Y., USA) and using T4 DNA ligase to join the fragments; pcDNA4HISmaxB was used as it contains elements that up-regulate the level of gene transcription over standard pcDNA3.1 vectors). 24 hrs post-transfection, the cells were detached from the flask using Trypsin/EDTA solution (LTI) and seeded into a black sided, Poly-D-lysine-treated, 96-well plate (Becton Dickinson) at 5×10^4 cells/well density. The plates were left overnight to allow the cells to adhere to the bottom of the wells. The medium was removed from the cells and replaced with 100 μl warm (37° C.) dye loading solution (50 μg Fluo3 (Molecular probes) in 20 μl DMSO+20% pluronic acid in DMSO, added to 11 ml Dulbecco's Modified Eagles Medium containing 1×Probenecid (100×Probenecid—0.71 g Probenecid was dissolved in 5 ml 1M NaOH and 5 ml Dulbeccos' Phosphate Buffered Saline (PBS), per plate; Probenecid (Molecular Devices) inhibits activity of the anion transport protein, thus improving dye loading). The plates were then incubated for 1 hr at 37° C. Plates were subsequently washed with 250 μl of wash buffer per well (5 ml 100×Probenecid stock+495 ml PBS, pH 7.4) 4 times. The plates were returned to the 37° C./5% CO2 incubator for 30 mins prior to processing within the FLIPR® instrument. The FLIPR® processing involved reading the fluorescence for all samples for 2 minutes; during this time the fluorescence baseline was determined for 10 seconds. The desired amount of compound (i.e. histamine or histamine agonists) was then automatically transferred to the wells and the fluorescence was continuously monitored for the remainder of the time. All compounds were diluted in wash buffer.
Using methodology as described in detail above, the effect of histamine on the functional activation of PFI-013 was investigated.
Using methodology as described in detail above, the effect of histaminergic compounds on the functional activation of PFI-013 was investigated.
FIG. 8 depicts the action of various histaminergic compounds (columns 2 to 10) serially diluted from […] (rows A and B) down to 0.5 μM in duplicate (rows G and H), on PFI-013-transfected 293 cells (FIG. 8A) or vector-only transfected 293 cells (FIG. 8B). Remaining wells contained buffer only with no compound.

[4] = system: isolated human eosinophils; assay: Inhibition of histamine-induced chemotaxis of IL-5-primed human eosinophils; assay type: cell-based; settings: for IC50: Homo sapiens, Eosinophil, histamine 30 nM as agonist, antagonists at 10, 1 and 0.1 μM, preliminary results, FIG. 10C, read-out: IC50 for antagonising histamine-induced chemotaxis of human eosinophils; for reduction of the chemotactic response of isolated human eosinophils to histamine dihydrochloride: antagonists at a single concentration of 10 μM, IL-5-primed eosinophils, FIG. 10B
Procedure: as §1
Antagonist experiments were performed to further characterise the histamine receptor subtype involved in the eosinophil chemotactic response to histamine. […] Antagonists were used at a single concentration of 10 μM. Antagonists tested were: mepyramine maleate (histamine H1 antagonist), cimetidine (histamine H2 antagonist), thioperamide (histamine H3 antagonist) and clobenpropit (histamine H3 antagonist).
A further experiment was performed to determine the IC50 of both thioperamide and clobenpropit (histamine H3 antagonists) for inhibiting isolated human eosinophil in vitro chemotaxis. Methodology was as above, using thioperamide and clobenpropit at 10 μM, 1 μM and 0.1 μM concentrations (Histamine, as the agonist, was used at 30 nM).

PFI-013 [5] = molecular target: T1, PFI-013; settings: 3H-histamine 0.72-1500 nM; difference between PFI-013-transfected and mock-transfected CHO-K1 membranes; preliminary data, FIG. 6

T1 sequence (Q9H3N8 whole entry): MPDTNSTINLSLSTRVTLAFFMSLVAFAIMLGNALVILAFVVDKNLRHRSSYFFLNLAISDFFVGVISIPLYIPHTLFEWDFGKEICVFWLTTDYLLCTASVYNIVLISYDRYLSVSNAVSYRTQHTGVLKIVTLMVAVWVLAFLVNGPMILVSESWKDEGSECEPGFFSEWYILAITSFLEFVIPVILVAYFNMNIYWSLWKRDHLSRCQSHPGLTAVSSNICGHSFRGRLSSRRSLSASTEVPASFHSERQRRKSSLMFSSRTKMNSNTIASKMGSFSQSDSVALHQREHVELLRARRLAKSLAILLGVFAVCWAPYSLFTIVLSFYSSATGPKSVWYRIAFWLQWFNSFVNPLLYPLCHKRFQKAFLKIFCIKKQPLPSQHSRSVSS

Molecule	chemotactic response of isolated human eosinophils [1]	activation of PFI-013 by histaminergic compounds (PFI-013 [3])	also measured
CNC(=S)NCCCCc1cnc[nH]1 [Burimamide]	displayed no chemotactic activity		effect on intracellular Ca2+ production in isolated human eosinophils [2]: partial agonist effect
CN(C)CCCSC(=N)N [Dimaprit]	displayed no chemotactic activity	no activation of PFI-013 could be detected	
CC(CCCCC(=O)Nc1ccc(C(F)(F)F)cc1)NCCc1cnc[nH]1.O=C(O)/C=C\C(=O)O.O=C(O)/C=C\C(=O)O (stereo not shown) [HTMT, HTMT dimaleate]	very weak chemotactic response only at the highest concentration tested (1 μM)		
N=C(N)SCCc1cnc[nH]1 [Imetit]	displayed no chemotactic activity	no activation of PFI-013 could be detected	
N[C@@H](Cc1c[nH]cn1)C(=O)O [L-histidine]		no activation of PFI-013 could be detected	
CNCCc1cnc[nH]1 [N-α-methyl histamine]		activated	
C[C@@H](N)Cc1c[nH]cn1 [R-α-methyl histamine]		activated	
NC(=NCc1ccc(Cl)cc1)SCCCc1cnc[nH]1 [clobenpropit]		no activation of PFI-013 could be detected	IC50 [4]: 1.5 µM; reduction of the chemotactic response of isolated human eosinophils to histamine dihydrochloride [4]: greatest effect on the reduction of the chemotactic response
Cl.Cl.NCCc1c[nH]cn1 [histamine dihydrochloride]	induced a significant chemotactic response		
Cn1cnc(CCN)c1 [histamine-1-methyl]		activated	
NCCc1c[nH]cn1 [histamine]		activated	binding of histamine to PFI-013 (PFI-013 [5]): binds to PFI-013, albeit with relatively low affinity; activation of PFI-013 by histamine (transient increase in intracellular calcium) (PFI-013 [3]; at the 10 μM concentration, tested 10 μM serially diluted in log steps down to 10 pM, versus vector-only cells, FIG. 7): specific activation of PFI-013
COc1ccc2c(c1OC)C(=O)O[C@@H]2[C@H]1c2c(cc3c(c2OC)OCO3)CCN1C [noscapine]		no activation of PFI-013 could be detected	
S=C(NC1CCCCC1)N1CCC(c2cnc[nH]2)CC1 [thioperamide]			IC50 [4]: 0.83 µM; reduction of the chemotactic response of isolated human eosinophils to histamine dihydrochloride [4]: greatest effect on the reduction of the chemotactic response
IL-5: interleukin-5, used to prime the eosinophils for chemotaxis studies			effect of IL-5 priming of eosinophils on the chemotactic response to histamine ([4]; IL-5 pretreatment of the eosinophils, FIG. 10A): enhance the chemotactic response to histamine

From patent US20030149242A1, “Novel polypeptide” (Pfizer Inc., priority 1999, published 2003)
